Legend:
[1] = tested on: Ren (+/WT) cells; assay: Ren cell aggregation assay; format: cell-based; conditions: wild type PECAM-1 transfected, agent added to cell suspension at two concentrations, 90 rpm, 37° C., 20 minutes, FIG. 4
Procedure: (§1) FIG. 4 depicts the results of a Ren cell aggregation assay. About 2×10^6 of Ren cells, Ren (−), Ren (+/WT) and Ren (+/PM), were seeded in a T75 flask and cultured for 48 hours for aggregation assays. The monodispersed Ren cells suspension (10^6 cells/ml in HBSS with 1 mM CaCl2) were prepared. Next, two concentrations of anti-PECAM-1 antibody (JHS-7) (A), and human rcPECAM-1 (B) were added in. Then, cells were transfected to wells in a 24-well tissue culture tray (1 mL per well) and rotated on a gyratory shaker (at 90 rpm) at 37° C. for 20 minutes. Data are expressed as the percent of total cells present in aggregates. *P<0.05, **P<0.01.
(§2) A variation of aggregation assay of Takeichi (59) was adopted. Briefly, confluent culture of Ren cells were detached and dispersed and resuspended to about 10^6 cells/ml in HBSS (37° C.) with 1 mM CaCl2. One ml cell aliquots were transfected to wells in a 24-well plate and rotated on a gyratory shaker (At 90 rpm) at 37° C. for 20 minutes, then stopped by addition of glutaraldehyde to a final concentration of 2%. Aggregation was quantified by examining representative aliquot of equal volumes from each sample on a hemacytometer grid under phase contrast optics. Cells remaining as single cells or present in aggregates (≧3 cells clots) were counted in nine squares. Data are expressed as the percent of total cells present in aggregates.

[2] = tested on: Ren (+/PM) cells; assay: Ren cell aggregation assay; format: cell-based; conditions: 125Val plus 563Asn PECAM-1 transfected, agent added to cell suspension at two concentrations, 90 rpm, 37° C., 20 minutes, FIG. 4
Procedure: as §1, §2

recombinant human PECAM-1 protein: Soluble recombinant PECAM-1 (95˜98 KDa, containing only the extracellular domains), purchased from R&D Systems (Cat# ADP6C)
effect on Ren cell aggregation (percent of total cells present in aggregates) [1]: attenuated the aggregation | effect on Ren cell aggregation (percent of total cells present in aggregates) [2]: attenuated the aggregation
